The values below come from publication PMC12017303 (Science Advances, 2025).

Test [1] has as its system SARS-CoV-2 variants WA1, XBB.1.5, XBB.1.16, and EG.5.1. The experiment in a line: microbe, parasite or virus in culture. It counts as cell-based. Conditions: Severe acute respiratory syndrome coronavirus 2, read-out: EC50 range against all viruses tested.
Test [2] relates to SARS-CoV-2 Beta variant. To be noted: mouse, in vivo.

Turning to `CC(C)(C)[C@H](NC(=O)C(F)(F)F)C(=O)N1C[C@H]2[C@@H]([C@H]1C(=O)N[C@H](C#N)C[C@@H]1CCNC1=O)C2(C)C` [nirmatrelvir, reference compound], the EC50 – broadly, the midpoint of the concentration-response curve – in test [1] was 0.021 to 0.067 µM. Moreover, in test [2], the “SARS-CoV-2 N protein in lung (immunohistochemistry)” value was “minimal or no viral protein present” and the “reduction in virus replication compared to the vehicle (plaque assay)” value worked out at 2 log.

Take `C#CCn1c(C)c(-n2nnc3cc(F)c(F)cc32)c(=O)n(-c2cncc3ccccc23)c1=O` [AVI-4773]: in test [2], the “reduction in viral load compared to the ensitrelvir-treated arm” value is recorded as above 3 log; the “reduction in viral load compared to vehicle-treated animals” value is ~ 6 log; the “reduction in viral titers” value was > 1,000,000; the “viral titers after three doses, result in words” value was “below detectable levels”.

For the compound `C#CCn1c(C)c(-n2nnc3ccccc32)c(=O)n(-c2cncc3ccccc23)c1=O` [AVI-4516], in test [2], the “IC50 for decrease in lung virus replication” value stood at 14.7 mg/kg; the “SARS-CoV-2 N protein in lung (immunohistochemistry)” value is on record as “minimal or no viral protein present”; the “mononuclear cell infiltration and respiratory epithelial cell injury in lung” value is “notably absent”.
